The source of these data is patent publication US5187174A, “6'-deoxy-6'-halo-neplanocin A and its production” (Asahi Kasei Kogyo Kabushiki Kaisha, priority 1989, dated 1993).

Data set [1] is described as follows: Resistance to adenosine deaminase. Particulars: bovine, pH 7.2, 25° C., read-out: Remaining Amount (%); for remaining at 0.5 h, 500 µM: 30 min. It is filed as in vitro ADME, calf. As for the experimental part: A solution 0.5 mM of each test sample is prepared by dissolving the test sample in 0.05M Tris-HCl buffer (pH 7.2). Adenosine deaminase (calf intestine, 400 U/ml glycerin, Boehringer 102091) is diluted ten times with 0.05M Tris-HCl buffer (pH 7.2) to prepare an adenosine deaminase solution.
0.5 ml of each sample solution is mixed with 10 μl of adenosine deaminase solution. The mixtures are allowed to stand in a water bath at 25° C., and 4 μl samples thereof are pipetted off after 1, 10, 20 and 30 minutes. The remaining sample is measured by HPLC under the following conditions:
Column: Licrosorb RP-18-5
Elution solvent: Control; 15% methanol
Elution speed: 1.0 ml/min.

For data set [2], the system named is L5178Y cells. Nature of the data set: Growth inhibition activity against L5178Y cells. It is filed as cell-based. The settings on record: Mus musculus, 48 hours, 37° C. As for the experimental part: 1. Growth inhibition activity against L5178Y cells:
A solution of each test compound is prepared by dissolving or suspending the compound in RRMI 1640 medium containing 10% bovine serum by ultrasonication. A cell suspension of L5178Y cells, 1.1×10^4 cells/ml, each suspension having a volume of 1.8 ml, is added to each test tube. A solution (0.2 ml) of the test compound hereinabove is added thereto and the medium is tightly sealed and incubated at 37° C. for 48 hours. After incubation, the number of cells is measured using a Coulter counter and the growth ratio of the cells is determined.

Data set [3] relates to adenosine deaminase. The settings on record: in words; thought to occur, Ref. 1; cited from earlier work.
In data set [4] the test system is cells. The settings on record: in words; Ref. 1; cited from earlier work.

Structures are written as SMILES. Converted amounts (≈) assume the structure as drawn.

As usually defined, the IC50 is the concentration at which inhibition is half-maximal. A high value points to weaker potency. As for `Nc1ncnc2c1ncn2C1C=C(CI)C(O)C1O` (stereo not shown) [Compound (1) X = I, 6'-deoxy-6'-iodoneplanocin A], in data set [1], the amount remaining at 10 min, 500 µM stood at 97%; the fraction remaining at 20 min, 500 µM came to 96%; the fraction remaining at 0.5 h, 500 µM worked out at 96%. The IC50 in data set [2] is 0.4 µg/mL (≈ 1.07 µM).

For the molecule `Nc1ncnc2c1ncn2C1C=C(CCl)C(O)C1O` (stereo not shown) [Compound (1) X = Cl, 6'-deoxy-6'-chloroneplanocin A], in data set [1], the fraction remaining at 10 min, 500 µM turned out to be 101%; the share remaining at 20 min, 500 µM came out at 99%; the fraction remaining at 0.5 h, 500 µM was 102%. Half-maximal inhibition in data set [2] (IC50) required 0.3 µg/mL (≈ 1.06 µM).

For the molecule `Nc1ncnc2c1ncn2C1C=C(CF)C(O)C1O` (stereo not shown) [Compound (1) X = F, 6'-deoxy-6'-fluoroneplanocin A], in data set [1], the share remaining at 10 min, 500 µM turned out to be 99%; the fraction remaining at 20 min, 500 µM is 98%; the amount remaining at 0.5 h, 500 µM turned out to be 98%. This molecule yielded an IC50 in data set [2] of 1.1 µg/mL (≈ 4.15 µM).

On to `Nc1ncnc2c1ncn2C1C=C(CBr)C(O)C1O` (stereo not shown) [Compound (1) X = Br, 6'-deoxy-6'-bromoneplanocin A], for which, in data set [1], the share remaining at 10 min, 500 µM was found to be 98%; the fraction remaining at 20 min, 500 µM was found to be 97%; the fraction remaining at 0.5 h, 500 µM was found to be 97%. Moreover, the IC50 in data set [2] is 0.2 µg/mL (≈ 0.613 µM).

As for `Nc1ncnc2c1ncn2[C@@H]1C=C(CO)[C@@H](O)[C@H]1O` [Neplanocin A], in data set [1], the share remaining at 10 min, 500 µM was determined as 6%; the share remaining at 20 min, 500 µM came out at 0.4%; the share remaining at 0.5 h, 500 µM amounted to 0%. Further, in data set [3], the “conversion by adenosine deaminase in vivo” value is given as “rapid conversion to an inert deamination-type compound (neplanocin D)”. This molecule also displayed a half-maximal inhibitory concentration (IC50) in data set [2] of 0.2 µg/mL (≈ 0.76 µM). Moreover, the “cytotoxic activity in vitro” value in data set [4] was “has cytotoxic activity in vitro”.
